US12139558B2, “Method of manufacturing a pharmaceutical composition” (Ferring B.V., priority 2017, dated 2024)
Values belong to the compound of their own block, whether it stands above or below them. Starred links: 1 amine or outer side, 2 acyl side, 3 side chain; linkers in the order of their positions; H or OH if unused. Positions of bridges follow the written chain, without caps; N, C: chain ends. Residues, ends and D or L forms follow the SMILES beside them. X1 = O=C(CCC[*:2])[*:1]

Legend:
[1] = type: physicochemical
Method: The next day the solids were analysed by HPLC for purity and assay (FIG. 3b), TG/DTA for ease of mass loss/thermal events (FIG. 4b) as well as polarised light microscopy (PLM) and XRPD for morphology and crystalline content. […] These mass losses correspond to weakly surface bound acetonitrile and water, and are not indicative of any solvation of the crystal form itself.

[2] = Gravimetric vapour sorption (GVS) of crystals; type: physicochemical; conditions: 25° C.
Method: Gravimetric vapour sorption (GVS) was performed on an SMS DVS-1. 1.4 mg of crystals and powder were added into an Al pan and exposed to stepwise relative humidity (RH) changes during two consecutive cycles: 20-30-40-50-60-70-80-70-60-50-40-30-20-10-0-10-20-30-40-50-60-70-80-90-80-70-60-50-40-30-20-10-0% RH in an open loop mode. The temperature was maintained at 25° C. and pure nitrogen flow rate of 200 ml/min was used. The dm/dt criteria applied was 0.001 weight-%/min during a 5 minute window, with a maximum time of 150 minutes for all steps, with the exception of steps at 0% RH that were set to 6 hours.

[3] = system: Prader-Willi Syndrome patients; conditions: after 15 days, vs placebo treated patients; cited from earlier work

total mass loss (TG/DTA) ([1]; up to 110° C., crystals of Example 4, FIG. 4b): approximately 0.8%
first mass loss (TG/DTA) ([1]; up to approximately 60° C., weakly surface bound acetonitrile and water): approximately 0.5%
second mass loss (TG/DTA) ([1]; up to approximately 110° C., weakly surface bound acetonitrile and water): approximately 0.3%
SMILES: CC[C@H](C)[C@@H]1NC(=O)[C@H](Cc2ccc(OC)cc2)NC(=O)CCCSC[C@@H](C(=O)N2CCC[C@H]2C(=O)N[C@@H](CC(C)C)C(=O)NCC(N)=O)NC(=O)[C@H](CC(N)=O)NC(=O)[C@H](CCC(N)=O)NC1=O [Form II, carbetocin] (Y(Me)IQNCPLG-NH2; linker N-5 via X1)

GVS isotherm plateau (monohydrate plus some loosely bound surface water) ([2]; crystals of Example 5, FIG. 8b): around 2 % (w/w)
GVS second plateau, additional (pentahydrate with some loosely bound surface water) ([2]; crystals of Example 5, FIG. 8b): approximately 8 % (w/w)
relative humidity at which the pentahydrate exists ([2]; sorption): ≥ 60 % RH
SMILES: CC[C@H](C)[C@@H]1NC(=O)[C@H](Cc2ccc(OC)cc2)NC(=O)CCCSC[C@@H](C(=O)N2CCC[C@H]2C(=O)N[C@@H](CC(C)C)C(=O)NCC(N)=O)NC(=O)[C@H](CC(N)=O)NC(=O)[C@H](CCC(N)=O)NC1=O [Form III, carbetocin] (Y(Me)IQNCPLG-NH2; linker N-5 via X1)

SMILES: CC[C@H](C)[C@@H]1NC(=O)[C@H](Cc2ccc(OC)cc2)NC(=O)CCCSC[C@@H](C(=O)N2CCC[C@H]2C(=O)N[C@@H](CC(C)C)C(=O)NCC(N)=O)NC(=O)[C@H](CC(N)=O)NC(=O)[C@H](CCC(N)=O)NC1=O [carbetocin, 1-butanoic acid-2-(O-methyl-L-tyrosine)-1-carbaoxytocin] (Y(Me)IQNCPLG-NH2; linker N-5 via X1)
improvement over placebo in measurements of hyperphagia, obsessive compulsive disorder, food seeking behaviour and clinical global impression [3]: statistically significant improvement over placebo treated patients
